Test results: ChEMBL document CHEMBL3102804, “Synthesis, anticancer activity and DNA-binding properties of novel 4-pyrazolyl-1,8-naphthalimide derivatives” (Bioorg Med Chem Lett, 2014)
Active and inactive are the calls of the source. No cut-off for these calls is given here.

Columns and labels:
[1] = test system: MCF7; experiment: Cytotoxicity against human MCF7 cells assessed as cell viability after 48 hrs by MTT assay; type: functional, cell-based; conditions: MCF7, 48 h
[2] = test system: A549; experiment: Cytotoxicity against human A549 cells assessed as cell viability after 48 hrs by MTT assay; type: functional, cell-based; conditions: A549, 48 h
[3] = test system: HeLa; experiment: Cytotoxicity against human HeLa cells assessed as cell viability after 48 hrs by MTT assay; type: functional, cell-based
[4] = test system: DNA; experiment: Binding affinity to calf thymus DNA assessed as melting temperature at 5 uM by UV spectrophotometric analysis (reference value: 59.7 degC); type: nucleic-acid assay; conditions: Bos taurus
[5] = test system: MCF7; experiment: Potency index, ratio of amonafide IC50 to compound IC50 for human MCF7 cells; type: functional
[6] = test system: A549; experiment: Potency index, ratio of amonafide IC50 to compound IC50 for human A549 cells; type: functional
[7] = test system: HeLa; experiment: Potency index, ratio of amonafide IC50 to compound IC50 for human HeLa cells; type: functional
[8] = test system: DNA; experiment: Binding affinity to calf thymus DNA assessed as hypochromicity/bathochromic shift after 120 mins by UV-vis absorption spectra analysis; type: nucleic-acid assay; conditions: Bos taurus
[9] = test system: DNA; experiment: Binding affinity to calf thymus DNA assessed as change in melting temperature at 5 uM by UV spectrophotometric analysis; type: nucleic-acid assay; conditions: Bos taurus
[10] = test system: DNA; experiment: Binding affinity to calf thymus DNA at compound to DNA ratio 0.1 to 0.5 by CD spectra analysis; type: nucleic-acid assay; conditions: Bos taurus
[11] = test system: DNA; experiment: Binding affinity to calf thymus DNA at compound to DNA ratio >= 2 by CD spectra analysis; type: nucleic-acid assay; conditions: Bos taurus
[12] = test system: DNA; experiment: Binding affinity to calf thymus DNA by fluorescent spectra analysis; type: nucleic-acid assay; conditions: Bos taurus

In the case of `CN(C)CCN1C(=O)c2cccc3c(-n4cc(-c5ccc(Br)cc5)cn4)ccc(c23)C1=O`, the IC50 [1] is reported as 10.7 µM, the IC50 [2] is reported as over 50 µM and the IC50 [3] is reported as 3.47 µM.

With `COc1cccc(-c2cnn(-c3ccc4c5c(cccc35)C(=O)N(CCN(C)C)C4=O)c2)c1` the IC50 [1] was 1.99 µM, the IC50 [2] was 12 µM and the IC50 [3] was 14.6 µM.

`CN(C)CCN1C(=O)c2cccc3c(-n4cc(-c5ccccc5)cn4)ccc(c23)C1=O` was tested, and the IC50 [1] was 1.58 µM, the IC50 [2] was 8.52 µM and the IC50 [3] was 6.5 µM.

With `CN(C)CCN1C(=O)c2cccc3c(-n4cc(-c5cc(C(F)(F)F)cc(C(F)(F)F)c5)cn4)ccc(c23)C1=O` the IC50 [1] was 3.39 µM, the IC50 [2] was 25.4 µM and the IC50 [3] was 16.6 µM.

With `COc1cc(-c2cnn(-c3ccc4c5c(cccc35)C(=O)N(CCN(C)C)C4=O)c2)cc(OC)c1OC` the Tm [4] was 61.5 °C, the “Ratio IC50” value [5] was 3.3 and the “Ratio IC50” value [6] was 2.5. The IC50 [1] was 0.51 µM, the “Ratio IC50” value [7] was 2.2 and the Kb [8] was 1.01 ×10⁴ /M. The IC50 [2] was 5.14 µM, the ΔTm [9] was 1.8 °C and the Activity [10] was “Active”. The Activity [11] was “Active”, the Kbapp [12] was 1.04 ×10⁴ /M and the IC50 [3] was 3.09 µM.

Compound `CN(C)CCN1C(=O)c2cccc3c(-n4cc(-c5ccc(C(F)(F)F)cc5)cn4)ccc(c23)C1=O` has an IC50 [1] of 4.26 µM, an IC50 [2] of 25 µM and an IC50 [3] of 13.3 µM.

For `Cc1ccc(-c2cnn(-c3ccc4c5c(cccc35)C(=O)N(CCN(C)C)C4=O)c2)cc1`, the “Ratio IC50” value [6] was 2.6, the IC50 [1] was 17 µM and the IC50 [2] was 5.09 µM. It also gave an IC50 [3] of 4.6 µM.

Work on `CN(C)CCN1C(=O)c2cccc3c(-n4cccn4)ccc(c23)C1=O` yielded an IC50 [1] of 2.72 µM, an IC50 [2] of over 50 µM and an IC50 [3] of 9.47 µM.

`CN(C)CCN1C(=O)c2cccc3c(-n4cc(-c5ccc(Cl)cc5)cn4)ccc(c23)C1=O` was tested, and the IC50 [1] was 4.24 µM, the IC50 [2] was 17.2 µM and the IC50 [3] was 10.6 µM.

`COc1ccc(-c2cnn(-c3ccc4c5c(cccc35)C(=O)N(CCN(C)C)C4=O)c2)cc1` gave an IC50 [1] of 2.62 µM, an IC50 [2] of 7.69 µM and an IC50 [3] of 4.99 µM.

`COc1ccc(-c2cnn(-c3ccc4c5c(cccc35)C(=O)N(CCN(C)C)C4=O)c2)cc1OC` showed an IC50 [1] of 0.79 µM, an IC50 [2] of 11.8 µM and an IC50 [3] of 3.5 µM.

`CN(C)CCN1C(=O)c2cccc3cc(N)cc(c23)C1=O` [AMONAFIDE] showed an IC50 [3] of 6.71 µM.

In the case of `CN(C)CCN1C(=O)c2cccc3c(-n4cc(-c5ccc(F)cc5)cn4)ccc(c23)C1=O`, the IC50 [1] is reported as 1.56 µM, the IC50 [2] is reported as 24 µM and the IC50 [3] is reported as 3.1 µM.
